The values that follow come from paper PMC7827406, “Structure–Activity Relationship (SAR) Study of Spautin-1 to Entail the Discovery of Novel NEK4 Inhibitors” (International Journal of Molecular Sciences, 2021).

Assay in all cases: biochemical
Common to all, as to set-up: Eurofins KinaseProfiler full panel at Km ATP, residual kinase activity (%) relative to DMSO

One assay has as its target AAK1(h) (Homo sapiens, UniProt Q2M2I8). In short, it runs like this:
(§1)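 Two 10 µM single-concentration screens were run: a competition-binding screen, in which DNA-tagged kinase bound to immobilized ligands was quantified by qPCR, and a radiometric activity panel at Km ATP. Each is expressed as residual kinase activity (%).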

The target in a further assay is T1, AMPKα2(h) (Homo sapiens, UniProt P54646).
T1 construct: gene PRKAA2
The procedure, abridged:
as §1

A further assay concerns the target T2, Abl (Q252H) (h) (Homo sapiens, UniProt P00519, Q252H).
T2 construct: gene ABL1
In short, it runs like this:
as §1

A further assay concerns the target T3, CHK2(I157T)(h) (Homo sapiens, UniProt O96017, I157T).
T3 construct: gene CHEK2
In short, it runs like this:
as §1

A further assay addresses T4, DRAK2(h) (Homo sapiens, UniProt O94768).
T4 construct: gene STK17B
T4 sequence (O94768 1-372): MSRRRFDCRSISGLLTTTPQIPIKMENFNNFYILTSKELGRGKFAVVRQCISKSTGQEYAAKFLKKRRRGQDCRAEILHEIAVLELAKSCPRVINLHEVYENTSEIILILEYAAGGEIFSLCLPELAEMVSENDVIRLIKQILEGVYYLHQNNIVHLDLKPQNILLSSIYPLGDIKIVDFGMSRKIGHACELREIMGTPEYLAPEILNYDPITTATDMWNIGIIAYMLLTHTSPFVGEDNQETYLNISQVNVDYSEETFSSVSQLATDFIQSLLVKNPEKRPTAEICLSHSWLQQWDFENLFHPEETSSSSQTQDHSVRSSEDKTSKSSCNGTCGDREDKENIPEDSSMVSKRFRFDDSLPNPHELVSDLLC
In short, it runs like this: as §1

The target of a further assay is T5, TAK1(h) (Homo sapiens, UniProt O43318).
T5 construct: gene MAP3K7
T5 sequence (O43318 1-606): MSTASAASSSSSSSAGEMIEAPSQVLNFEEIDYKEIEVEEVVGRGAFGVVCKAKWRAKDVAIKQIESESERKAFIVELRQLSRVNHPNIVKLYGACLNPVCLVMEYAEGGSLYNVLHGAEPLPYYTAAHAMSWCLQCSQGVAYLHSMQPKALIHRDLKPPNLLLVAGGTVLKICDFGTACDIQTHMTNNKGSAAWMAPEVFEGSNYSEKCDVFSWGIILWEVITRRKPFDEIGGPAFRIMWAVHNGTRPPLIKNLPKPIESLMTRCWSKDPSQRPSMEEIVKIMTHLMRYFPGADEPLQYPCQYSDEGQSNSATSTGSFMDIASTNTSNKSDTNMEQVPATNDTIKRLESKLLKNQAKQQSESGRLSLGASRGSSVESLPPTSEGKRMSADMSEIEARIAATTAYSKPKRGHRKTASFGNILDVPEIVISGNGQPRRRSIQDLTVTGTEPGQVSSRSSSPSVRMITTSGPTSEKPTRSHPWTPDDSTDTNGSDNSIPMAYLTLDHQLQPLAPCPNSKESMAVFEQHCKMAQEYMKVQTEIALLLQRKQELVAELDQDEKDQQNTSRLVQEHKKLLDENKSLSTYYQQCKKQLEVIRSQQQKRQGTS
In short, it runs like this:
as §1

The target in the next assay is T6, TTK(h) (Homo sapiens, UniProt P33981).
T6 sequence (P33981 1-857): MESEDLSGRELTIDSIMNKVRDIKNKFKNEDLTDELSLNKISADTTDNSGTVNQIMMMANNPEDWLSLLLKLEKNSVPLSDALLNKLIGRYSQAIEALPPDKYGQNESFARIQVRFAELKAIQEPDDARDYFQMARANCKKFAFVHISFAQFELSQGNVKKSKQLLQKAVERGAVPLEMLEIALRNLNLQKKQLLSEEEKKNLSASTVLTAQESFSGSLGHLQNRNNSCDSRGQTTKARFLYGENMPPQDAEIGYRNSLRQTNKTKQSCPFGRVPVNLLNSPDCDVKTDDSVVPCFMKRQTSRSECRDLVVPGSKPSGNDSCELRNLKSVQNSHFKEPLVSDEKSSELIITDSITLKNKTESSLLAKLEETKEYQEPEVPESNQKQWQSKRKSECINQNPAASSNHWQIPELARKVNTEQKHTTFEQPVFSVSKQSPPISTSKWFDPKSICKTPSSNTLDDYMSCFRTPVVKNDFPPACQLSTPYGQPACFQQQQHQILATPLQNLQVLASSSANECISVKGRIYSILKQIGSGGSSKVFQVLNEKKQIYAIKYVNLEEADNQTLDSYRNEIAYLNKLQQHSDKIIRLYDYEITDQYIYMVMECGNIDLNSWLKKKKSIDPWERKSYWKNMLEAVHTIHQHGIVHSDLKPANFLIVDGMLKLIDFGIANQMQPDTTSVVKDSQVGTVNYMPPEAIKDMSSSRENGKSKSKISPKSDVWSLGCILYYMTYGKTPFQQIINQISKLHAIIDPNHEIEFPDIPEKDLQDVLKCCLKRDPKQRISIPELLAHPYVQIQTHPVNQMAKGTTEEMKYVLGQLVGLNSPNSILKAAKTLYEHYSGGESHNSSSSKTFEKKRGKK
The procedure, abridged:
as §1

Setting [1] is: read-out: Residual activity (%) 5at.
Where [2] appears, read: read-out: Residual activity (%) 5ay.
Setting [3] is: read-out: Residual activity (%) 5as.
Setting [4] is: read-out: Residual activity (%) Spautin-1 5aa.

Molecules are shown by their SMILES. Like-named read-outs stand apart in the source and are kept apart here.

T3 sequence (O96017 whole entry I157T): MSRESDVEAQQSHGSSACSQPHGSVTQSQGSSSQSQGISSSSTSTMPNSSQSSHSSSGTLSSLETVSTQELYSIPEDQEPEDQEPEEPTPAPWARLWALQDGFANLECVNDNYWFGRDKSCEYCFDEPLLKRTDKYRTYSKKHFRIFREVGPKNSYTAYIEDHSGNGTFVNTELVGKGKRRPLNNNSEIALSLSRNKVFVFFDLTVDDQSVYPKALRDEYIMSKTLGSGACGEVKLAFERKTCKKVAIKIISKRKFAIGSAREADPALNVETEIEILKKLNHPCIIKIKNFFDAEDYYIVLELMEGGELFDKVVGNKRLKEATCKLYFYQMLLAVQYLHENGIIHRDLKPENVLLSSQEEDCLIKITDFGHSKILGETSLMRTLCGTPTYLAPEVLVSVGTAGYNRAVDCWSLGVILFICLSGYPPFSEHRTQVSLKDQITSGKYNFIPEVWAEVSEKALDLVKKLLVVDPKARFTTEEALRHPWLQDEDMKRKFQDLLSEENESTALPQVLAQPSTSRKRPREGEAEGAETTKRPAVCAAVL
T1 sequence (P54646 whole entry): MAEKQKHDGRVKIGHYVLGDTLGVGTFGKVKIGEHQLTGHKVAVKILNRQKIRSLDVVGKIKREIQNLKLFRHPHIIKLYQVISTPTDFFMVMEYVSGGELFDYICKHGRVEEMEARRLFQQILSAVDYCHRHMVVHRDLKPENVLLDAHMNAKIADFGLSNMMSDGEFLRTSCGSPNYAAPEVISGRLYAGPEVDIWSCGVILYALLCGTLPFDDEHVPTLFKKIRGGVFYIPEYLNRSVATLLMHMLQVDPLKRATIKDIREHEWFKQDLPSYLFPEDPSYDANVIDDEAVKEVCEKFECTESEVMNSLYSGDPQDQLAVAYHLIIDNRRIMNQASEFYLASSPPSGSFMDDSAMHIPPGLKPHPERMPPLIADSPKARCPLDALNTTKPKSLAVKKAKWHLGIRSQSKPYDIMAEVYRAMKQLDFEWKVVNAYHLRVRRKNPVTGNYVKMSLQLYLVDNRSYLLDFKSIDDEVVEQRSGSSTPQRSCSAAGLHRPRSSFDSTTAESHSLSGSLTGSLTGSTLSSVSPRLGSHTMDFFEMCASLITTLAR
T1 sequence (P54619 whole entry partner): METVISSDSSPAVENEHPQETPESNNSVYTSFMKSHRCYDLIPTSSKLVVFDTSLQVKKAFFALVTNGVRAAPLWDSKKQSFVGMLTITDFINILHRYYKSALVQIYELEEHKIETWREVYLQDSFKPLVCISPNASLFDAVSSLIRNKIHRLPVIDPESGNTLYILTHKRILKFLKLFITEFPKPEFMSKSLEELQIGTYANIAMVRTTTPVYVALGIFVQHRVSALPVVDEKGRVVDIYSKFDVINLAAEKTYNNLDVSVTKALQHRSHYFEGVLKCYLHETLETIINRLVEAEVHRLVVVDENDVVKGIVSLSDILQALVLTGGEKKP
T1 sequence (Q9Y478 whole entry partner): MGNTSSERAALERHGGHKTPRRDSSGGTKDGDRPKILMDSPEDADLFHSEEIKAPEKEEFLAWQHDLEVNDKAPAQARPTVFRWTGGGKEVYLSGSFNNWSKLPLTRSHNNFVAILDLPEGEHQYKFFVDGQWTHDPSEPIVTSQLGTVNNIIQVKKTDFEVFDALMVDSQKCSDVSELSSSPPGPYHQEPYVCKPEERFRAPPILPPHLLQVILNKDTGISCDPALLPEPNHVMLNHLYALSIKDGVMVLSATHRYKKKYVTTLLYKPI
Chain of AAK1(h) (Q2M2I8 whole entry): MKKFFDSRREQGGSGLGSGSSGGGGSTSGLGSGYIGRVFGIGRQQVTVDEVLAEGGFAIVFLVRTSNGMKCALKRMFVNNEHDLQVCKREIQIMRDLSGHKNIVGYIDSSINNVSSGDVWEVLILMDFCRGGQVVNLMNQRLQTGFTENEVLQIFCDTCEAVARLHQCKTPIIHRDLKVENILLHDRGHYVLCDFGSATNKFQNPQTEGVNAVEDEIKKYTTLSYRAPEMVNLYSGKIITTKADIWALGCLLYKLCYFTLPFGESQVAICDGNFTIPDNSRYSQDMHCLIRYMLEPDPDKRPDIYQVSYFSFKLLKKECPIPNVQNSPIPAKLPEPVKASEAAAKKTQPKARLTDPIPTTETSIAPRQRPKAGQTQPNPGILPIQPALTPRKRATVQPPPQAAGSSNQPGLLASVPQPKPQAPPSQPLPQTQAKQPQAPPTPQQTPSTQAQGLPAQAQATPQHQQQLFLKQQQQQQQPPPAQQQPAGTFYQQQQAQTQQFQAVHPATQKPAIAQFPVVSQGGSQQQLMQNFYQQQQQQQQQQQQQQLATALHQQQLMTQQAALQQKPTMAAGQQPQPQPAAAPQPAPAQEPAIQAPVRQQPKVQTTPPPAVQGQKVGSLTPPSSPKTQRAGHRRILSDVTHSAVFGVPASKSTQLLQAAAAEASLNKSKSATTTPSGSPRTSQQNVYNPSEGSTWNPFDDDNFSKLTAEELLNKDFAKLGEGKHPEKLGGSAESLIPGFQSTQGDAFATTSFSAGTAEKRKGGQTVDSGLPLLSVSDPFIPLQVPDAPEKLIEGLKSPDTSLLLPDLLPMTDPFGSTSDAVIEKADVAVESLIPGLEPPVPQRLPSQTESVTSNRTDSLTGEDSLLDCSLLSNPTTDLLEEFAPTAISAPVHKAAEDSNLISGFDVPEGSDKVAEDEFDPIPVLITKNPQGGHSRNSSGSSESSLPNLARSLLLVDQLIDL

As for `Fc1ccc2ncnc(NCCc3ccc(Cl)cc3)c2c1` [5at, N-[2-(4-Chlorophenyl)Ethyl]-6-Fluoro-4-Quinazolinamine], the remaining activity at 10 µM stood at 72% at AAK1(h) (setting [1]); 109% at AMPKα2(h) (setting [1]); 88% at Abl (Q252H) (h) (setting [1]); 99% on CHK2(I157T)(h) (setting [1]); 88% at DRAK2(h) (setting [1]); 82% on TAK1(h) (setting [1]). The remaining activity at 10 µM on TTK(h) (setting [1]) turned out to be 89%.
Take `COc1ccc2ncnc(Nc3cccc(F)c3)c2c1` [5ay, N-(3-Fluorophenyl)-6-Methoxy-4-Quinazolinamine]: the remaining activity at 10 µM on AAK1(h) (setting [2]) was determined as 53%; at AMPKα2(h) (setting [2]), 97%; at Abl (Q252H) (h) (setting [2]) it was 80%; at CHK2(I157T)(h) (setting [2]) it was 91%; on DRAK2(h) (setting [2]), 65%; at TAK1(h) (setting [2]) it was 74%. In addition, the remaining activity at 10 µM on TTK(h) (setting [2]) is 104%.
With `Fc1ccc(CCNc2ncnc3ccc(F)cc23)cc1` [5as, 6-Fluoro-N-[2-(4-Fluorophenyl)Ethyl]-4-Quinazolinamine], the remaining activity at 10 µM turned out to be 81% on AAK1(h) (setting [3]); 108% on AMPKα2(h) (setting [3]); 104% at Abl (Q252H) (h) (setting [3]); 105% on CHK2(I157T)(h) (setting [3]); 73% at DRAK2(h) (setting [3]); 83% on TAK1(h) (setting [3]). Also, at TTK(h) (setting [3]), the remaining activity at 10 µM was determined as 84%.
`Fc1ccc(CNc2ncnc3ccc(F)cc23)cc1` [5aa, 6-Fluoro-N-(4-fluorobenzyl)-4-Quinazolinamine]: the remaining activity at 10 µM at AAK1(h) (setting [4]) turned out to be 95%; at AMPKα2(h) (setting [4]) it was 108%; on Abl (Q252H) (h) (setting [4]), 104%; at CHK2(I157T)(h) (setting [4]) it was 88%; on DRAK2(h) (setting [4]), 88%; on TAK1(h) (setting [4]) it was 74%. Further, the remaining activity at 10 µM on TTK(h) (setting [4]) is 64%.
